Several values for one entry are separate records, joined by “and”; a condition that tells them apart may be missing. Identical values can stand only once. Entries after “also recorded” stand apart in the source; their conditions may differ. Counter-ions that a name gives are not always drawn. Like-named read-outs stand apart in the source and are kept apart here.
Columns and labels:
growth hormone release = assay: Growth hormone release in vivo
prolactin release = assay: Prolactin release in vivo
opiate receptors [1] = assay: Irreversible opiate receptor binding/blocking (general statements); conditions: for potency of irreversible block of opiate binding in vitro relative to corresponding hydrazone: azine vs corresponding hydrazone; for removal of reversible ligand by washing (in words): two washes with incubation at 37° for 10 min
Procedure: (§1) In brief, brain membranes were prepared and triplicate samples incubated with [^3 H] labelled ligands and designated drugs for 30 minutes at 25° C., followed by filtration over Whatman GF/B filters. […] Specific binding is defined as the difference in binding in the presence and absence of levallorphan (1 uM). […] Each tissue wash included incubation for 10 min. at 37° C., centrifugation and resuspension. Irreversibility experiments included four washes before binding assays were performed, unless otherwise stated.

rats [2] = type: in vivo, rat; conditions: 50 mg/kg intravenously
Procedure: They were then food deprived for 24 hours but allowed free access to water. Five rats received saline, four received naloxone and three naloxazone. […] The animals were then given free access to food for 1 hour and their weight gain noted. Thus, eating was measured 24 hours after the administration of the drugs and after 24 hours of food deprivation.

opiate receptors [3] = type: binding, rat; conditions: for irreversible inhibition of [^3 H]D-ala^2 -D-leu^5 -enkephalin binding (in words): 2 μM; for Change in Binding (Percent), [^3 H]D-ala^2 -D-leu^5 -enkephalin: compound 2 μM, 30 min 25° C., four washes, ligand 1 nM, mean ± s.e.m. of three experiments
Procedure: as §1
(§2) To determine which compounds did irreversibly bind to the receptor, membranes were incubated with the various drugs (2 μM) and then the free and reversibly bound drug washed away (Table 2).
(§3) Rat brain membranes were prepared and incubated with the above drugs (2 μM) for 30 min at 25° C. and the tissue was then washed four times as described in the text to remove reversibly bound material. The results represent the means ±s.e.m. of three separate experiments utilizing [^3 H]D-ala^2 -D-leu^5 -enkephal in (1 nM) and [^3 H]dihydromorphine (0.8 nM). […] After 15 min the solution was added to tissue.

[4] = test system: high affinity, or mu1, binding sites; conditions: Pasternak et al.; Zhang and Pasternak; cited from earlier work
[5] = Reaction of hydrazones to azines in solution; conditions: acidic aqueous solutions; absolute ethanol or water/acetic acid (1%), 15 min
Duration of action = type: in vivo; conditions: compared to conventional / currently available opiates
opiate receptors [6] = molecular target: T1, opiate receptors (Rattus norvegicus, UniProt P33535); assay: biochemical; type: binding
T1 construct: Rat brain homogenates were prepared as described; from tissue; host or cells: rat brain homogenate / membranes
Procedure: as §1
IC50 values were determined by least square fits of a log-probit curve. The results are the means ±s.e.m. of three IC50 values determined in separate experiments.

opiate receptors [7] = molecular target: T1, opiate receptors; assay: biochemical; type: binding; conditions: for irreversible inhibition of [^3 H]dihydromorphine binding (in words): 2 μM, various concentrations in b75 (FIG. 2); for inhibition at 2 µM: 0.5 h, read-out: Change in Binding (Percent), [^3 H]dihydromorphine
Procedure: Results are from a single experiment which has been replicated three times.
as §1, §2, §3
After incubating membranes with the specified drug, the membranes were extensively washed and a binding assay with [^3 H]dihydromorphine performed.

opiate receptors [8] = assay: Irreversible inhibition of ^3 H-DADL binding, 100 nM, two washes; set-up: species or system rat; conditions: for ^3 H-DADL Binding: 30 min 25° C., DADL 1 nM, control 1800 ± 53 cpm, triplicate ± S.E.M.; for ^3 H-DADL Binding, change: vs control, 30 min
Procedure: (§4) Each wash consisted of centrifugation, incubation at 37° for 10 min and centrifugation again. […] Bindig was then performed with either ^3 H-D-ala^2 -D-leu^5 -enkephalin (DADL) or ^3 H-dihydromorphine (DHM) both at 1 nM. Specific binding was determined as that displaceable by levallorphan at 1000 nM. All values represent the means of triplicate samples ±S.E.M.

opiate receptors [9] = molecular target: T1, opiate receptors; assay: Irreversible inhibition of ^3 H-DHM binding, 100 nM, two washes; conditions: for ^3 H-DHM Binding: 100 nM, 30 min 25° C., two washes, DHM 1 nM, control 3447 ± 273 cpm, triplicate ± S.E.M.; for inhibition at 0.1 µM: 0.5 h, read-out: ^3 H-DHM Binding, change
Procedure: as §4

mice [10] = assay: In vivo actions of naltrexone-oxymorphonazine (tailflick latencies); set-up: species or system mouse; conditions: for Tailflick Latencies, Prior: baseline prior to 10 mg/kg s.c.
Procedure: Groups of mice were injected subcutaneously with the stated drug and latencies in the tailflick test determined and compared to those obtained prior to testing. […] This compares with an analgesic rate of 100% of animals receiving oxymorphone HCl in other control experiments.

rats [11] = conditions: cited from earlier work
mice [12] = assay: Oxymorphonazine analgesia in vivo (Tail-Flick Assay); set-up: species or system mouse; conditions: 25 μg in 5 μl of artificial CSF; for Analgesia (percent), 20 hr.: groups differ p<0.015, Fisher's Exact Test
Procedure: Mice were injected with either oxymorphone or oxymorphonazine (both 25 μg in 5 μl of artificial CSF) under Ethrane/oxygen anesthesia and tested for analgesia at the stated time. Analgesia was determined by Tail-Flick Assay. Quantal criteria, the doubling of the baseline latency for each individual animal, was used. At 20 hours, the oxymorphone and oxymorphonazine groups differed from each other at p<0.015 level, as determined by Fisher's Exact Test.

[13] = compound 2 μM, 30 min 25° C., four washes, ligand 0.8 nM, mean ± s.e.m. of three experiments

T1 sequence (P33535 whole entry): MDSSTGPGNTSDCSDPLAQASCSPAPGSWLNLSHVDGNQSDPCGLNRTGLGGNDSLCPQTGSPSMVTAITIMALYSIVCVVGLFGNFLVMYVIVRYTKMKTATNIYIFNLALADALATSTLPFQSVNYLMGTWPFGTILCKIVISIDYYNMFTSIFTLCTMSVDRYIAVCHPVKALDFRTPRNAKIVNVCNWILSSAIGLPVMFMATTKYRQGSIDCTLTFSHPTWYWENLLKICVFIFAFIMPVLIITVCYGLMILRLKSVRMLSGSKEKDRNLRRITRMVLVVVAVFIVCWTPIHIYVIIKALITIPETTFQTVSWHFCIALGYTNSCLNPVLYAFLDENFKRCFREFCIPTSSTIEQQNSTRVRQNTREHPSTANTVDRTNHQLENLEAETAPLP

## CN1CC[C@]23c4c5ccc(O)c4O[C@H]2[C@@H](O)C=C[C@H]3[C@H]1C5 [Morphine, morphine]
Growth hormone release; prolactin and growth hormone
  hormone release by morphine (in words): releases both hormones
Prolactin release; prolactin and growth hormone
  hormone release by morphine (in words): releases both hormones
Opiate receptors [1]
  irreversible inhibition of opiate receptor binding / activity (in words): show no irreversible inhibition

## C=CCN1CCC23c4c5ccc(O)c4OC2C(=NN)CCC3(O)C1C5 (stereo not drawn) [Naloxazone, naloxazone]
Rats [2]
  effect on feeding (in words): significant effect as an appetite suppressant
Rats [2]; 1 hour free access to food, 24 hours after drug
  Amounts eaten, individual animals: 3.3 grams and 2.4 grams and 3.5 grams
Rats [2]; 1 hour free access to food, 24 hours after drug, saline 4.78 ± 0.42, significant at the p 0.05 level (ANOVA)
  Amounts eaten, Mean ± SEM: 3.07 ± 0.34 grams
Growth hormone release; basal levels
  effect on basal levels of growth hormone, naloxazone (in words): significant reduction in the basal levels of the drugs
Growth hormone release; in vivo
  effect on growth hormone release (in words): actually increased; also recorded: without effecting growth hormone release elicited by morphine
Opiate receptors [3]
  irreversible inhibition of [^3 H]D-ala^2 -D-leu^5 -enkephalin binding (in words): neither naloxazone nor oxymorphazone irreversibly inhibited the binding
  Change in Binding (Percent), [^3 H]D-ala^2 -D-leu^5 -enkephalin: +15 ± 5%
[4]
  blocking opiate analgesia / effect on opiate-induced lethality (in words): blocking opiate analgesia with little effect on other classes of binding sites or opiate-induced lethality
[5]
  stability in solution: reaction to azine (in words): no azine formation could be detected
Prolactin release; basal levels
  effect on basal levels of prolactin, naloxazone (in words): significant reduction in the basal levels of the drugs
Prolactin release; in vivo
  depression of morphine-induced release of prolactin: over 80%
  effect on prolactin release (in words): selectively lowering prolactin release
Opiate receptors [1]; high doses
  dose for irreversible blockade of opiate receptor binding (naloxazone): 2 µM

## C=CCN1CCC23c4c5ccc(O)c4OC2C(=NN=C2CCC4(O)C6Cc7ccc(O)c8c7C4(CCN6CC=C)C2O8)CCC3(O)C1C5 (stereo not drawn) [Naloxonazine, naloxonazine]
Duration of action
  duration of action (in words): in the order of days
Duration of action; listed as naloxonazine
  duration of action (in words): lasting far longer than conventional opiates
Opiate receptors [3]; 2 uM, 30 min
  eliminated [^3 H]D-ala^2 -D-leu^5 -enkephalin binding: over 90%
Opiate receptors [3]
  Change in Binding (Percent), [^3 H]D-ala^2 -D-leu^5 -enkephalin: -93% ± 4
Opiate receptors [1]; low doses
  dose reproducing the irreversible blockade of opiate receptor binding by naloxazone: 50 nM

## NN=C1CCC2(O)C3Cc4ccc(O)c5c4C2(CCN3CC2CC2)C1O5 (stereo not drawn) [Naltrexazone, naltrexazone]
Opiate receptors [3]
  irreversible inhibition of [^3 H]D-ala^2 -D-leu^5 -enkephalin binding (in words): small amount of inhibition
  Change in Binding (Percent), [^3 H]D-ala^2 -D-leu^5 -enkephalin: -17 ± 19%
[5]
  stability in solution: reaction to azine (in words): A trace amount of azine was present
Opiate receptors [6]
  IC50: 1.7 ± 0.2 nM
Opiate receptors [7]
  irreversible inhibition of [^3 H]dihydromorphine binding (in words): small amount of inhibition
Opiate receptors [7]; [13]
  inhibition at 2 µM: 31 ± 26%

## Oc1ccc2c3c1OC1C(=NN=C4CCC5(O)C6Cc7ccc(O)c8c7C5(CCN6CC5CC5)C4O8)CCC4(O)C(C2)N(CC2CC2)CCC314 (stereo not drawn) [Naltrexonazine, naltrexonazine]
Duration of action
  duration of action (in words): in the order of days
Duration of action; listed as naltrexonazine
  duration of action (in words): lasting far longer than conventional opiates
Opiate receptors [3]
  Change in Binding (Percent), [^3 H]D-ala^2 -D-leu^5 -enkephalin: -97 ± 3%
Opiate receptors [6]
  IC50: 1.16 nM
Opiate receptors [8]
  ^3 H-DADL Binding: 653 ± 85 cpm
  ^3 H-DADL Binding, change: -65%
Opiate receptors [9]
  ^3 H-DHM Binding: 1183 ± 128 cpm
  inhibition at 0.1 µM: 66%
Mice [10]; 10 mg/kg s.c.
  Tailflick Latencies, After 20 min: 2.50 ± 0.36 s
  Tailflick Latencies, After 40 min: 2.74 ± 0.49 s
Mice [10]
  Tailflick Latencies, Prior: 2.50 ± 0.34 s
Opiate receptors [7]; [13]
  inhibition at 2 µM: 88 ± 12%
Opiate receptors [1]
  potency of irreversible block of opiate binding in vitro relative to corresponding hydrazone: 20-40 fold
Opiate receptors [1]; compared with naloxone and naltrexone
  selectivity for mu1 class versus naloxone and naltrexone (in words): far more selective for the mu1 class of opiate binding sites

## O=C1CC[C@@]2(O)[C@H]3Cc4ccc(O)c5c4[C@@]2(CCN3CC2CC2)[C@H]1O5 [Naltrexone, naltrexone]
Rats [11]
  suppression of eating behavior (known): effectively suppress eating behavior in rats
Mice [10]; 10 mg/kg s.c.
  Tailflick Latencies, After 20 min: 2.37 ± 0.31 s
  Tailflick Latencies, After 40 min: 2.59 ± 0.35 s
Mice [10]
  Tailflick Latencies, Prior: 2.63 ± 0.27 s
Opiate receptors [1]
  removal of reversible ligand by washing (in words): effectively removed

## CN1CCC23c4c5ccc(O)c4OC2C(=NN=C2CCC4(O)C6Cc7ccc(O)c8c7C4(CCN6CC4CC4)C2O8)CCC3(O)C1C5 (stereo not drawn) [Naltrexone-oxymorphonazine, naltrexone-oxymorphonazine]
Opiate receptors [8]
  ^3 H-DADL Binding: 1205 ± 157 cpm
  ^3 H-DADL Binding, change: -33%
Opiate receptors [9]
  ^3 H-DHM Binding: 1487 ± 120 cpm
  inhibition at 0.1 µM: 57%
Mice [10]; 10 mg/kg s.c.
  Tailflick Latencies, After 20 min: 2.20 ± 0.35 s
  Tailflick Latencies, After 40 min: 2.29 ± 0.31 s
Mice [10]
  Tailflick Latencies, Prior: 2.44 ± 0.32 s
Mice [10]; doubling of baseline latencies, 10 mg/kg s.c.
  animals analgesic (in words): none of the animals receiving the mixed azine (naltrexone-oxymorphonazine) were analgesic
Mice [10]; in vivo tests of mixed agonist/antagonist compounds
  action in vivo (in words): act as antagonists
Opiate receptors [1]
  irreversible inhibition of opiate receptor binding / activity (in words): appear to irreversibly bind the opiate receptors

## CN1CCC23c4c5ccc(O)c4OC2C(=NN)CCC3(O)C1C5 (stereo not drawn) [Oxymorphazone, oxymorphazone]
Opiate receptors [3]
  irreversible inhibition of [^3 H]D-ala^2 -D-leu^5 -enkephalin binding (in words): neither naloxazone nor oxymorphazone irreversibly inhibited the binding
  Change in Binding (Percent), [^3 H]D-ala^2 -D-leu^5 -enkephalin: 43% ± 24
[5]
  stability in solution: reaction to azine (in words): no azine formation could be detected
Opiate receptors [7]
  irreversible inhibition of [^3 H]dihydromorphine binding (in words): neither naloxazone nor oxymorphazone irreversibly inhibited the binding
Opiate receptors [7]; [13]
  inhibition at 2 µM: -3%

## CN1CCC23c4c5ccc(O)c4OC2C(=NN=C2CCC4(O)C6Cc7ccc(O)c8c7C4(CCN6C)C2O8)CCC3(O)C1C5 (stereo not drawn) [Oxymorphonazine, oxymorphonazine]
Mice [12]
  Analgesia (percent), 1 hr.: 100%
  Analgesia (percent), 4 hr.: 100%
  Analgesia (percent), 10 hr.: 100%
  Analgesia (percent), 20 hr.: 44%
Duration of action
  duration of action (in words): lasting far longer than conventional opiates
Opiate receptors [3]
  Change in Binding (Percent), [^3 H]D-ala^2 -D-leu^5 -enkephalin: -59 ± 3%
Opiate receptors [7]
  inhibition at 2 µM: 71 ± 4%
Opiate receptors [1]
  potency of irreversible block of opiate binding in vitro relative to corresponding hydrazone: 20-40 fold

## CN1CC[C@]23c4c5ccc(O)c4O[C@H]2C(=O)CC[C@@]3(O)[C@H]1C5 [Oxymorphone, oxymorphone]
Mice [12]
  Analgesia (percent), 1 hr.: 100%
  Analgesia (percent), 4 hr.: 78%
  Analgesia (percent), 10 hr.: 33%
  Analgesia (percent), 20 hr.: 0%
Opiate receptors [1]
  removal of reversible ligand by washing (in words): effectively removed

## CN1CC[C@]23c4c5ccc(O)c4O[C@H]2C(=O)CC[C@@]3(O)[C@H]1C5 [oxymorphone HCl]
Mice [10]; other control experiments
  analgesic rate: 100%

— patent US4803208A, “Opiate agonists and antagonists” (Sloan-Kettering Institute For Cancer Research, priority 1985, dated 1989)
